{
  "source": "the OligoGym collection",
  "note": "Oligonucleotides are given in HELM: sugar(base)linkage, 5' to 3'; d 2'-deoxyribose, r ribose, m 2'-O-methylribose, p phosphate. ss, as = sense and antisense strand; also: test concentration or dose not given here",
  "data": [
    {"molecular_target": "TMEM63B", "experiment": "reporter assay of Huesken 2005", "conditions": "siRNA", "units": {"normalised inhibition (eCFP-eYFP dual reporter)": "%"}, "values": [
      {"substance": "RNA1{r(G)p.r(U)p.r(C)p.r(U)p.r(C)p.r(A)p.r(C)p.r(C)p.r(U)p.r(C)p.r(U)p.r(G)p.r(U)p.r(C)p.r(U)p.r(C)p.r(C)p.r(A)p.r(G)p.d(T)p.d(T)}|RNA2{r(C)p.r(U)p.r(G)p.r(G)p.r(A)p.r(G)p.r(A)p.r(C)p.r(A)p.r(G)p.r(A)p.r(G)p.r(G)p.r(U)p.r(G)p.r(A)p.r(G)p.r(A)p.r(C)p.d(G)p.d(C)}$$$RNA1{StrandType:ss}|RNA2{StrandType:as}$", "normalised inhibition (eCFP-eYFP dual reporter)": 88.6},
      {"substance": "RNA1{r(U)p.r(A)p.r(A)p.r(A)p.r(G)p.r(G)p.r(A)p.r(U)p.r(G)p.r(A)p.r(U)p.r(G)p.r(A)p.r(G)p.r(A)p.r(U)p.r(C)p.r(C)p.r(G)p.d(T)p.d(T)}|RNA2{r(C)p.r(G)p.r(G)p.r(A)p.r(U)p.r(C)p.r(U)p.r(C)p.r(A)p.r(U)p.r(C)p.r(A)p.r(U)p.r(C)p.r(C)p.r(U)p.r(U)p.r(U)p.r(A)p.d(T)p.d(C)}$$$RNA1{StrandType:ss}|RNA2{StrandType:as}$", "normalised inhibition (eCFP-eYFP dual reporter)": 24.7},
      {"substance": "RNA1{r(G)p.r(G)p.r(G)p.r(A)p.r(G)p.r(A)p.r(A)p.r(C)p.r(A)p.r(G)p.r(G)p.r(A)p.r(C)p.r(A)p.r(A)p.r(C)p.r(C)p.r(A)p.r(U)p.d(T)p.d(T)}|RNA2{r(A)p.r(U)p.r(G)p.r(G)p.r(U)p.r(U)p.r(G)p.r(U)p.r(C)p.r(C)p.r(U)p.r(G)p.r(U)p.r(U)p.r(C)p.r(U)p.r(C)p.r(C)p.r(C)p.d(C)p.d(A)}$$$RNA1{StrandType:ss}|RNA2{StrandType:as}$", "normalised inhibition (eCFP-eYFP dual reporter)": 65.9},
      {"substance": "RNA1{r(A)p.r(G)p.r(C)p.r(U)p.r(C)p.r(A)p.r(G)p.r(G)p.r(G)p.r(G)p.r(A)p.r(U)p.r(G)p.r(A)p.r(G)p.r(C)p.r(C)p.r(C)p.r(C)p.d(T)p.d(T)}|RNA2{r(G)p.r(G)p.r(G)p.r(G)p.r(C)p.r(U)p.r(C)p.r(A)p.r(U)p.r(C)p.r(C)p.r(C)p.r(C)p.r(U)p.r(G)p.r(A)p.r(G)p.r(C)p.r(U)p.d(C)p.d(C)}$$$RNA1{StrandType:ss}|RNA2{StrandType:as}$", "normalised inhibition (eCFP-eYFP dual reporter)": 43},
      {"substance": "RNA1{r(U)p.r(C)p.r(C)p.r(U)p.r(G)p.r(G)p.r(G)p.r(A)p.r(G)p.r(C)p.r(U)p.r(C)p.r(A)p.r(G)p.r(G)p.r(G)p.r(G)p.r(A)p.r(U)p.d(T)p.d(T)}|RNA2{r(A)p.r(U)p.r(C)p.r(C)p.r(C)p.r(C)p.r(U)p.r(G)p.r(A)p.r(G)p.r(C)p.r(U)p.r(C)p.r(C)p.r(C)p.r(A)p.r(G)p.r(G)p.r(A)p.d(G)p.d(C)}$$$RNA1{StrandType:ss}|RNA2{StrandType:as}$", "normalised inhibition (eCFP-eYFP dual reporter)": 52},
      {"substance": "RNA1{r(A)p.r(U)p.r(U)p.r(U)p.r(U)p.r(G)p.r(A)p.r(G)p.r(G)p.r(A)p.r(A)p.r(G)p.r(C)p.r(C)p.r(U)p.r(A)p.r(C)p.r(C)p.r(C)p.d(T)p.d(T)}|RNA2{r(G)p.r(G)p.r(G)p.r(U)p.r(A)p.r(G)p.r(G)p.r(C)p.r(U)p.r(U)p.r(C)p.r(C)p.r(U)p.r(C)p.r(A)p.r(A)p.r(A)p.r(A)p.r(U)p.d(G)p.d(C)}$$$RNA1{StrandType:ss}|RNA2{StrandType:as}$", "normalised inhibition (eCFP-eYFP dual reporter)": 27.8},
      {"substance": "RNA1{r(C)p.r(A)p.r(G)p.r(G)p.r(A)p.r(C)p.r(A)p.r(A)p.r(C)p.r(C)p.r(A)p.r(U)p.r(G)p.r(C)p.r(A)p.r(C)p.r(A)p.r(A)p.r(G)p.d(T)p.d(T)}|RNA2{r(C)p.r(U)p.r(U)p.r(G)p.r(U)p.r(G)p.r(C)p.r(A)p.r(U)p.r(G)p.r(G)p.r(U)p.r(U)p.r(G)p.r(U)p.r(C)p.r(C)p.r(U)p.r(G)p.d(T)p.d(T)}$$$RNA1{StrandType:ss}|RNA2{StrandType:as}$", "normalised inhibition (eCFP-eYFP dual reporter)": 61.5},
      {"substance": "RNA1{r(A)p.r(C)p.r(A)p.r(G)p.r(C)p.r(C)p.r(A)p.r(U)p.r(G)p.r(A)p.r(C)p.r(C)p.r(G)p.r(G)p.r(U)p.r(A)p.r(U)p.r(G)p.r(A)p.d(T)p.d(T)}|RNA2{r(U)p.r(C)p.r(A)p.r(U)p.r(A)p.r(C)p.r(C)p.r(G)p.r(G)p.r(U)p.r(C)p.r(A)p.r(U)p.r(G)p.r(G)p.r(C)p.r(U)p.r(G)p.r(U)p.d(C)p.d(C)}$$$RNA1{StrandType:ss}|RNA2{StrandType:as}$", "normalised inhibition (eCFP-eYFP dual reporter)": 56.4},
      {"substance": "RNA1{r(G)p.r(C)p.r(U)p.r(U)p.r(U)p.r(G)p.r(G)p.r(G)p.r(A)p.r(G)p.r(A)p.r(A)p.r(C)p.r(C)p.r(A)p.r(C)p.r(C)p.r(A)p.r(U)p.d(T)p.d(T)}|RNA2{r(A)p.r(U)p.r(G)p.r(G)p.r(U)p.r(G)p.r(G)p.r(U)p.r(U)p.r(C)p.r(U)p.r(C)p.r(C)p.r(C)p.r(A)p.r(A)p.r(A)p.r(G)p.r(C)p.d(T)p.d(G)}$$$RNA1{StrandType:ss}|RNA2{StrandType:as}$", "normalised inhibition (eCFP-eYFP dual reporter)": 75.8},
      {"substance": "RNA1{r(C)p.r(U)p.r(U)p.r(U)p.r(U)p.r(C)p.r(C)p.r(A)p.r(C)p.r(C)p.r(A)p.r(U)p.r(G)p.r(C)p.r(G)p.r(C)p.r(A)p.r(C)p.r(G)p.d(T)p.d(T)}|RNA2{r(C)p.r(G)p.r(U)p.r(G)p.r(C)p.r(G)p.r(C)p.r(A)p.r(U)p.r(G)p.r(G)p.r(U)p.r(G)p.r(G)p.r(A)p.r(A)p.r(A)p.r(A)p.r(G)p.d(A)p.d(A)}$$$RNA1{StrandType:ss}|RNA2{StrandType:as}$", "normalised inhibition (eCFP-eYFP dual reporter)": 0},
      {"substance": "RNA1{r(C)p.r(U)p.r(G)p.r(U)p.r(G)p.r(G)p.r(A)p.r(C)p.r(C)p.r(C)p.r(C)p.r(A)p.r(G)p.r(A)p.r(A)p.r(G)p.r(C)p.r(A)p.r(A)p.d(T)p.d(T)}|RNA2{r(U)p.r(U)p.r(G)p.r(C)p.r(U)p.r(U)p.r(C)p.r(U)p.r(G)p.r(G)p.r(G)p.r(G)p.r(U)p.r(C)p.r(C)p.r(A)p.r(C)p.r(A)p.r(G)p.d(T)p.d(A)}$$$RNA1{StrandType:ss}|RNA2{StrandType:as}$", "normalised inhibition (eCFP-eYFP dual reporter)": 75.4},
      {"substance": "RNA1{r(U)p.r(C)p.r(G)p.r(C)p.r(C)p.r(U)p.r(A)p.r(A)p.r(U)p.r(G)p.r(U)p.r(U)p.r(C)p.r(C)p.r(U)p.r(C)p.r(G)p.r(A)p.r(U)p.d(T)p.d(T)}|RNA2{r(A)p.r(U)p.r(C)p.r(G)p.r(A)p.r(G)p.r(G)p.r(A)p.r(A)p.r(C)p.r(A)p.r(U)p.r(U)p.r(A)p.r(G)p.r(G)p.r(C)p.r(G)p.r(A)p.d(G)p.d(C)}$$$RNA1{StrandType:ss}|RNA2{StrandType:as}$", "normalised inhibition (eCFP-eYFP dual reporter)": 77.9},
      {"substance": "RNA1{r(C)p.r(C)p.r(A)p.r(U)p.r(C)p.r(C)p.r(U)p.r(C)p.r(U)p.r(G)p.r(C)p.r(C)p.r(U)p.r(C)p.r(U)p.r(U)p.r(C)p.r(U)p.r(G)p.d(T)p.d(T)}|RNA2{r(C)p.r(A)p.r(G)p.r(A)p.r(A)p.r(G)p.r(A)p.r(G)p.r(G)p.r(C)p.r(A)p.r(G)p.r(A)p.r(G)p.r(G)p.r(A)p.r(U)p.r(G)p.r(G)p.d(G)p.d(C)}$$$RNA1{StrandType:ss}|RNA2{StrandType:as}$", "normalised inhibition (eCFP-eYFP dual reporter)": 53.2},
      {"substance": "RNA1{r(C)p.r(C)p.r(U)p.r(G)p.r(A)p.r(A)p.r(G)p.r(G)p.r(A)p.r(C)p.r(U)p.r(U)p.r(C)p.r(A)p.r(A)p.r(C)p.r(G)p.r(U)p.r(G)p.d(T)p.d(T)}|RNA2{r(C)p.r(A)p.r(C)p.r(G)p.r(U)p.r(U)p.r(G)p.r(A)p.r(A)p.r(G)p.r(U)p.r(C)p.r(C)p.r(U)p.r(U)p.r(C)p.r(A)p.r(G)p.r(G)p.d(A)p.d(T)}$$$RNA1{StrandType:ss}|RNA2{StrandType:as}$", "normalised inhibition (eCFP-eYFP dual reporter)": 84.5},
      {"substance": "RNA1{r(C)p.r(C)p.r(U)p.r(A)p.r(C)p.r(A)p.r(G)p.r(C)p.r(U)p.r(U)p.r(U)p.r(G)p.r(G)p.r(G)p.r(A)p.r(G)p.r(A)p.r(A)p.r(C)p.d(T)p.d(T)}|RNA2{r(G)p.r(U)p.r(U)p.r(C)p.r(U)p.r(C)p.r(C)p.r(C)p.r(A)p.r(A)p.r(A)p.r(G)p.r(C)p.r(U)p.r(G)p.r(U)p.r(A)p.r(G)p.r(G)p.d(C)p.d(A)}$$$RNA1{StrandType:ss}|RNA2{StrandType:as}$", "normalised inhibition (eCFP-eYFP dual reporter)": 81.9},
      {"substance": "RNA1{r(C)p.r(U)p.r(G)p.r(G)p.r(U)p.r(C)p.r(A)p.r(U)p.r(C)p.r(A)p.r(C)p.r(C)p.r(A)p.r(U)p.r(C)p.r(G)p.r(U)p.r(C)p.r(A)p.d(T)p.d(T)}|RNA2{r(U)p.r(G)p.r(A)p.r(C)p.r(G)p.r(A)p.r(U)p.r(G)p.r(G)p.r(U)p.r(G)p.r(A)p.r(U)p.r(G)p.r(A)p.r(C)p.r(C)p.r(A)p.r(G)p.d(G)p.d(A)}$$$RNA1{StrandType:ss}|RNA2{StrandType:as}$", "normalised inhibition (eCFP-eYFP dual reporter)": 67},
      {"substance": "RNA1{r(G)p.r(C)p.r(G)p.r(U)p.r(C)p.r(U)p.r(U)p.r(C)p.r(A)p.r(C)p.r(G)p.r(G)p.r(U)p.r(G)p.r(G)p.r(U)p.r(C)p.r(A)p.r(U)p.d(T)p.d(T)}|RNA2{r(A)p.r(U)p.r(G)p.r(A)p.r(C)p.r(C)p.r(A)p.r(C)p.r(C)p.r(G)p.r(U)p.r(G)p.r(A)p.r(A)p.r(G)p.r(A)p.r(C)p.r(G)p.r(C)p.d(A)p.d(C)}$$$RNA1{StrandType:ss}|RNA2{StrandType:as}$", "normalised inhibition (eCFP-eYFP dual reporter)": 75.9},
      {"substance": "RNA1{r(A)p.r(G)p.r(G)p.r(U)p.r(G)p.r(C)p.r(U)p.r(G)p.r(C)p.r(A)p.r(G)p.r(G)p.r(A)p.r(C)p.r(U)p.r(C)p.r(A)p.r(G)p.r(A)p.d(T)p.d(T)}|RNA2{r(U)p.r(C)p.r(U)p.r(G)p.r(A)p.r(G)p.r(U)p.r(C)p.r(C)p.r(U)p.r(G)p.r(C)p.r(A)p.r(G)p.r(C)p.r(A)p.r(C)p.r(C)p.r(U)p.d(G)p.d(A)}$$$RNA1{StrandType:ss}|RNA2{StrandType:as}$", "normalised inhibition (eCFP-eYFP dual reporter)": 61.8},
      {"substance": "RNA1{r(U)p.r(G)p.r(C)p.r(A)p.r(C)p.r(A)p.r(A)p.r(G)p.r(U)p.r(G)p.r(C)p.r(U)p.r(A)p.r(C)p.r(A)p.r(C)p.r(U)p.r(U)p.r(U)p.d(T)p.d(T)}|RNA2{r(A)p.r(A)p.r(A)p.r(G)p.r(U)p.r(G)p.r(U)p.r(A)p.r(G)p.r(C)p.r(A)p.r(C)p.r(U)p.r(U)p.r(G)p.r(U)p.r(G)p.r(C)p.r(A)p.d(T)p.d(G)}$$$RNA1{StrandType:ss}|RNA2{StrandType:as}$", "normalised inhibition (eCFP-eYFP dual reporter)": 99.1},
      {"substance": "RNA1{r(C)p.r(G)p.r(C)p.r(U)p.r(C)p.r(A)p.r(G)p.r(G)p.r(U)p.r(G)p.r(C)p.r(U)p.r(G)p.r(C)p.r(A)p.r(G)p.r(G)p.r(A)p.r(C)p.d(T)p.d(T)}|RNA2{r(G)p.r(U)p.r(C)p.r(C)p.r(U)p.r(G)p.r(C)p.r(A)p.r(G)p.r(C)p.r(A)p.r(C)p.r(C)p.r(U)p.r(G)p.r(A)p.r(G)p.r(C)p.r(G)p.d(A)p.d(T)}$$$RNA1{StrandType:ss}|RNA2{StrandType:as}$", "normalised inhibition (eCFP-eYFP dual reporter)": 46.2}
    ]}
  ]
}
